Reference: patent US9181232B2, “Difluoro-hexahydro-cyclopentaoxazinyls and difluoro-hexahydro-benzooxazinyls as BACE1 inhibitors” (Hoffmann-La Roche Inc., priority 2012, dated 2015)

What was measured:
hERG channel = target: T1, hERG channel (Homo sapiens, UniProt Q12809); assay: PatchXpress hERG inhibition assay; assay type: cell-based; details: @ 1 μM; CHO cells expressing hERG
T1 construct: expressed in transfected cells; host or cells: CHO cells
Protocol: The detailed method to quantify hERG channel inhibition by the automated patch clamp system PatchXpress® 7000A (Molecular Devices, Sunnyvale, Calif.) has been described by Guo et al.^12 In brief, Chinese hamster ovary (CHO) cells transfected with the human ether-a-go-go-related gene (hERG) was cultured in Ex-cell 302 media supplemented with 10% fetal bovine serum, 2 mM glutamine and 0.25 mg/ml geneticin and maintained in a CO2 incubator at 37° C. For patch clamp electrophysiology, the external buffer contained (in mM): 150 NaCl, 10 Hepes, 4 KCl, 1.2 CaCl2, 1 MgCl2, pH 7.4 adjusted with […] and the internal recording solution contained (in mM): 140 KCl, 6 EGTA, 5 Hepes, MgCl2, 5 ATP-Na2, pH 7.2 adjusted with KOH. Once the cell was loaded in the recording chamber and formed a giga ohm seal with the planar glass electrodes (Sealchip™), a whole-cell configuration was achieved by rupturing the cell membrane. The membrane potential was then clamped at −80 mV and the hERG channel activated by a 1-second depolarizing pulse delivered at 0.1 Hz, the hERG current was measured during the 500 ms-repolarizing pulse to −40 mV. After an acceptable hERG current recording was obtained, the cell was first exposed to 0.3% DMSO as the vehicle control, followed by the test article in three ascending, full-log interval concentrations and finally E-4031 at 1 μM (as the positive control) to block the hERG current completely. Each test article was tested on three or more cells and at concentrations up to 30 μM or the solubility limit determined the BD Gentest™ solubility scanner. The inhibition of hERG current at each concentration was normalized to that recorded in the vehicle control, and fitted with Hill equation to calculate IC20 and/or IC50.

P-gp (human MDR1) = target: T2, P-gp (human MDR1) (Homo sapiens, UniProt P08183); assay: P-gp (P-Glycoprotein) assay, bidirectional transcellular transport in LLC-PK1 and L-MDR1 cells; assay type: in vitro ADME; details: read-out: P-gp human, efflux ratio: substrate category
T2 construct: host or cells: LLC-PK1 (porcine kidney epithelial) transfected with human MDR1 (L-MDR1)
T2 sequence (P08183 whole entry): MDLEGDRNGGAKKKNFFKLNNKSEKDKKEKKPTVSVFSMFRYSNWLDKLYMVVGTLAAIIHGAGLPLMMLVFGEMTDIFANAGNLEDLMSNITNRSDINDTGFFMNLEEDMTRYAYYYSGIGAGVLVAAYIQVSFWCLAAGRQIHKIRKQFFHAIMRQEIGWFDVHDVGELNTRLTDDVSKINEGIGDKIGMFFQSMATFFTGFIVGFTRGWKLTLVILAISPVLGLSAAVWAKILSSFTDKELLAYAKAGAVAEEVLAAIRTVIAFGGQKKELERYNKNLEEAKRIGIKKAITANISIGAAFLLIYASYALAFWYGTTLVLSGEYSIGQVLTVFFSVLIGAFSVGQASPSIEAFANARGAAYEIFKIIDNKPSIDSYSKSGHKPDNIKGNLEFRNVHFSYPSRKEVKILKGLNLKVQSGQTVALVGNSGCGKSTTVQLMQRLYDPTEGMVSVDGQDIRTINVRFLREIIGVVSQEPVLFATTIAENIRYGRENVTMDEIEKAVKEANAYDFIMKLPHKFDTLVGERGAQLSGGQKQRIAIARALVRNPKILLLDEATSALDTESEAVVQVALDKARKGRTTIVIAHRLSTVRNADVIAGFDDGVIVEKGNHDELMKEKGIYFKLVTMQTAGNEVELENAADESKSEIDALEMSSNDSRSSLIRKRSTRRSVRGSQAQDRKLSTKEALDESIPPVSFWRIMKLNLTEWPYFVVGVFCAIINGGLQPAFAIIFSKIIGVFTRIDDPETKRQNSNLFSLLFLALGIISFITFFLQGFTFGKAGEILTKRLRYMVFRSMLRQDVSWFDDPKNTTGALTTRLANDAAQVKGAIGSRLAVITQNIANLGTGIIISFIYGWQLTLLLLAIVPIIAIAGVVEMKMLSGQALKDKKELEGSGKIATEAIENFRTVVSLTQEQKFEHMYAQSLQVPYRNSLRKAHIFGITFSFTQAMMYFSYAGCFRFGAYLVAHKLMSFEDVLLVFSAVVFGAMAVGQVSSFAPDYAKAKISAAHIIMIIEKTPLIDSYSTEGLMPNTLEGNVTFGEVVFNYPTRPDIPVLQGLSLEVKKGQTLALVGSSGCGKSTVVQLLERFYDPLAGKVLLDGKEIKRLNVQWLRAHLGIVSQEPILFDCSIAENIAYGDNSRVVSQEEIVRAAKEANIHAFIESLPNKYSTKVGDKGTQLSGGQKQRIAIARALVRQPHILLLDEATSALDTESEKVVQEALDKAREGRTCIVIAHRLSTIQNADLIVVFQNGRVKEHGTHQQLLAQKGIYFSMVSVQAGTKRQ
Protocol: The LLC-PK1 cell line (ATCC #CL-101) is a porcine kidney epithelial cell line. The MDR1 (Human multidrug resistance protein 1) transfected cell lines were obtained from Dr. A. Schinkel, The Netherlands Cancer Institute (Amsterdam, The Netherlands). All cell lines were cultured on permeable inserts (96-insert plates Millipore, 0.11 cm^2 area, pore size 0.4 μm) at 0.73*10^6 cells/ml. Transport measurements were performed at day 4 after seeding. Tightness of the cell monolayer was controlled via the permeability of the extracellular marker lucifer yellow (10 μM).
Bidirectional transcellular transport using LLC-PK1 and L-MDR1 LLC-PK1 cells exogenously expressing the human MDR1)
The experiments were performed on a TECAN automated liquid handling system. […] Concentrations of substrate in both compartments were determined by scintillation counting (digoxin) or by LC-MS/MS. The extracellular marker (lucifer yellow) was quantified using a spectrafluor plus reader at 430/535 nm (Ex/Em). In each experiment 3 different inserts were used for each condition and a mean was calculated. […]
Where Papp, A, C0, and dQ/dt represent the apparent permeability, the filter surface area, the initial concentration, and the amount transported per time period, respectively. Papp values were calculated on the basis of a single time point (2 h).
Transport efflux ratios (ER) were calculated as follows: […]

BACE1 = target: T3, BACE1 (Homo sapiens, UniProt P56817); assay: Cellular Aβ-lowering assay (Aβ40 ELISA, HEK293 cells expressing human APP695); assay type: cell-based; details: HEK293 cells stably expressing human APP695; Aβ40 in supernatant after 18-20 hrs; read-out: BACE1 cell act. Aβ40 IC50
T3 construct: Human HEK293 cells which are stably transfected with a vector expressing a cDNA of the human APP wt gene (APP695); endogenous in cells; host or cells: HEK293 stably expressing human APP695 wt
T3 sequence (P56817 46-501): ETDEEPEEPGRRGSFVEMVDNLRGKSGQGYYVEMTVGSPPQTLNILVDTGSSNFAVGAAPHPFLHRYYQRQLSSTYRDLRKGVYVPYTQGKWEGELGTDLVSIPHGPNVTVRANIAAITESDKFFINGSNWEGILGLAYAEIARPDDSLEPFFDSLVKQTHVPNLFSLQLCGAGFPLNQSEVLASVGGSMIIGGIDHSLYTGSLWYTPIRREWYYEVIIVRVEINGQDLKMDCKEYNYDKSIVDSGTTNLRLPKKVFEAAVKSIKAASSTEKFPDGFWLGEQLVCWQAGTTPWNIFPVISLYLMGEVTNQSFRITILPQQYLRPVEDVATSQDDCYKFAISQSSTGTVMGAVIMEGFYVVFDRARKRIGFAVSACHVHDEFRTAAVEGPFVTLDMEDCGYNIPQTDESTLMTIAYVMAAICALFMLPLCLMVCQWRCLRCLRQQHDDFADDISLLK
Protocol: Human HEK293 cells which are stably transfected with a vector expressing a cDNA of the human APP wt gene (APP695) were used to assess the potency of the compounds in a cellular assay. The cells were seeded in 96-well microtiter plates in cell culture medium (Iscove, plus 10% (v/v) fetal bovine serum, glutamine, penicillin/streptomycin) to about 80% confluence and the compounds were added at a 10× concentration in 1/10 volume of medium without FCS containing 8% DMSO (final concentration of DMSO was kept at 0.8% v/v). After 18-20 hrs incubation at 37° C. and 5% CO2 in a humidified incubator the culture supernatant was harvested for the determination of Aβ40 concentrations. 96 well ELISA plates (e.g., Nunc MaxiSorb) were coated with monoclonal antibody which specifically recognize the C-terminal end of Aβ40^10. After blocking of non-specific binding sites with e.g. 1% BSA and washing, the culture supernatants were added in suitable dilutions together with a horseradish peroxidase-coupled Aβ detection antibody (e.g., antibody 4G8, Senetek, Maryland Heights, Mo.) and incubated for 5 to 7 hrs. Subsequently the wells of the microtiter plate were washed extensively with Tris-buffered saline containing 0.05% Tween 20 and the assay was developed with tetramethylbenzidine/H2O2 in citric acid buffer. After stopping the reaction with one volume 1 N H2SO4 the reaction was measured in an ELISA reader at 450 nm wavelength. The concentrations of Aβ in the culture supernatants were calculated from a standard curve obtained with known amounts of pure Aβ peptide.

[1] = Detection of glutathione conjugates; assay type: in vitro ADME, human; parameters: key: NF = in vitro no significant adduct formation relative to control; details: in vitro, relative to control
Source text: The assay conditions for the detection of glutathione conjugates follow the procedure described by C. M. Dieckhaus et al.^13

T1 sequence (Q12809 whole entry): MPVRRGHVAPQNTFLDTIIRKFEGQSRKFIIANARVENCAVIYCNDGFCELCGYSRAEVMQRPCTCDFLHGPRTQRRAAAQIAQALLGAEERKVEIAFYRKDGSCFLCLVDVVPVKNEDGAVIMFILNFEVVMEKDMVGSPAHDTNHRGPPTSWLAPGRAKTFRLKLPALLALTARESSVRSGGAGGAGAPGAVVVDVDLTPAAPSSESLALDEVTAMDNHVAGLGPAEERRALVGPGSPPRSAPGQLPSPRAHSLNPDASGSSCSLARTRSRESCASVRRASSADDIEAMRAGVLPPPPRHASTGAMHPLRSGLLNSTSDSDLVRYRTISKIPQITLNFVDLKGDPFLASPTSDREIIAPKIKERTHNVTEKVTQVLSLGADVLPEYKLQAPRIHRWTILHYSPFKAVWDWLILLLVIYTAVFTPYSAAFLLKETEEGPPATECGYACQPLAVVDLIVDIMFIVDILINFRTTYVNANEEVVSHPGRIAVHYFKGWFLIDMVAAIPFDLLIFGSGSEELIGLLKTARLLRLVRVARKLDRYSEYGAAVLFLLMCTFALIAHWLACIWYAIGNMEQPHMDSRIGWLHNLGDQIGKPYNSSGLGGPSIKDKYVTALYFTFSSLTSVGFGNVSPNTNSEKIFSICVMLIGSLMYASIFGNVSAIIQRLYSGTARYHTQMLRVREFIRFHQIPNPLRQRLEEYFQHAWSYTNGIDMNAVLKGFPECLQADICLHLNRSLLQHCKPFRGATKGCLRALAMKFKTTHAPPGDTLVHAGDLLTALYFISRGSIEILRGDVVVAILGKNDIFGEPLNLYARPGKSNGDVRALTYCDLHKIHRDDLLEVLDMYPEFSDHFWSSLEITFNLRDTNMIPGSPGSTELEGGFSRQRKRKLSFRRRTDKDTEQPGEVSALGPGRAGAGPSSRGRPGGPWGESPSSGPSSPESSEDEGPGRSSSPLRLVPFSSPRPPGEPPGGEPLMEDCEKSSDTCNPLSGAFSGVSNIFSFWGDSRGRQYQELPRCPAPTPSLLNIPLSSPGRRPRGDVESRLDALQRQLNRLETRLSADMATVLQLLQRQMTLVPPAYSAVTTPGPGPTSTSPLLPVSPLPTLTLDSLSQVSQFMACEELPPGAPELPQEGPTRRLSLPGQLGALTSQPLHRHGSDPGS

Row | efflux ratio at 2 h (P-gp (human MDR1)) | IC50 (BACE1) | GSH human (glutathione adduct formation) [1] | SMILES | hERG inhibition (hERG channel)
1 | 3 to 10 | 0.4 nM | – | CC#CCOc1cnc(C(=O)Nc2ccc(F)c([C@@]3(C)N=C(N)O[C@@H]4CCC(F)(F)[C@@H]43)c2)cn1 [Example 1, 5-But-2-ynyloxy-pyrazine-2-carboxylic acid [3-((4S,4aR,7aR)-2-amino-5,5-difluoro-4-methyl-4,4a,5,6,7,7a-hexahydro-cyclopenta[e][1,3]oxazin-4-yl)-4-fluoro-phenyl]-amide] | A (A = less than 50% inhibition @ 1 μM)
2 | 3 to 10 | 1.5 nM | NF | C[C@]1(c2cc(NC(=O)c3ccc(C#N)cn3)ccc2F)N=C(N)O[C@@H]2CCC(F)(F)[C@@H]21 [Example 2, 5-Cyano-pyridine-2-carboxylic acid [3-((4S,4aR,7aR)-2-amino-5,5-difluoro-4-methyl-4,4a,5,6,7,7a-hexahydro-cyclopenta[e][1,3]oxazin-4-yl)-4-fluoro-phenyl]-amide] | A (A = less than 50% inhibition @ 1 μM)
3 | – | 2.2 nM | NF | C[C@]1(c2cc(NC(=O)c3ccc(C#N)cn3)ccc2F)N=C(N)O[C@@H]2CCCC(F)(F)[C@@H]21 [Example 8, 5-Cyano-pyridine-2-carboxylic acid [3-((4S,4aR,8aR)-2-amino-5,5-difluoro-4-methyl-4a,5,6,7,8,8a-hexahydro-4H-benzo[e][1,3]oxazin-4-yl)-4-fluoro-phenyl]-amide] | A (A = less than 50% inhibition @ 1 μM)
